By IC50 is commonly meant the concentration that gives 50% inhibition.

One test deals with H1299 tumor. Put plainly: human NSCLC xenograft model bearing H1299 tumor. It is filed as in vivo, Nude mice. The conditions noted are these: oral gavage 120 mg/Kg/day; for tumor regression: 5 consecutive days of the week. The method, then: (§1) The anti-tumor activity of Compound A was evaluated in the human NSCLC xenograft model. Nude mice and C57BL/6 mice were subcutaneously inoculated with H1299 (1×10^6) and mouse lung epithelial cancer cells, TC-1 (2×10^5), respectively. Tumor volumes were measured beginning on day 4 or 5 after tumor inoculation according to the relationship (L×D^2)/2, where L is the long dimension and D is the short dimension. The xenograft tumor-bearing mice were administered by oral gavage with compound A (dissolved in 10% dimethyl sulfoxide (DMSO)/cottonseed oil) at 120 mg/Kg/day for consecutive 5 days of the week. Animal body weight and tumor size were measured twice weekly. ANOVA followed by a multiple comparison Scheff test was conducted to determine significant differences among the treatment group at p<0.05.
(Xenograft models place foreign cells or tissue in a host animal.)

For test [1], the system named is lung cancer cells, A549, H1299, H1975, CL1-5, and PC-9. Put plainly: methylene blue dye assay, growth of lung cancer cells. It is filed as cell-based. The conditions noted are these: Homo sapiens; range over A549, H1299, H1975, CL1-5, PC-9; treated 1-5 μM for 1, 2 or 3 days; read-out: IC50 values (50% inhibition of cell viability). The text has this:
The effects of Compound A and Compound B on the growth of tumor cells were investigated in A549 (adenocarcinomic human alveolar epithelial cell), H1299 (human non-small cell lung carcinoma cell), H1975 (human non-small cell lung carcinoma cell), CL1-5 (human lung adenocarcinoma cell), and PC-9 (human lung adenocarcinoma cell) cell lines. A methylene blue dye assay (G. J. Finlay et al., Anal Biochem. 1984 June; 139(2):272-7) (11) was used to evaluate the inhibitory effect of Compound A and Compound B. Briefly, each of the cell lines with a logarithmic growth phase was cultured at a density of 2×10^4 to 4×10^4 cells per well in a 24-well plate, and treated with 1-5 μM of Compound A or Compound B for 1, 2, or 3 days. At the end of the incubation period, cells were fixed and stained with 0.5% methylene blue containing 50% ethanol for 30 minutes and then were washed and dried. The resulting colored residues were dissolved in 1% N-lauroyl-sarcosine, and optical density was read at 595 nm using a microplate reader. The IC50 value resulting from 50% inhibition of cell viability was calculated graphically as a comparison with vehicle control group. Each point represents the average of at least 3 independent experiments run in quadruple.

In test [2] the test system is TC-1 tumor (mouse lung epithelial cancer cells). Put plainly: mouse model bearing TC-1 tumor. Type of test: in vivo, C57BL/6 mice. The conditions noted are these: oral gavage 120 mg/Kg/day, p<0.05. On the procedure: as §1

Regarding `COc1ccc(/C=C/C(=O)C(F)(CC2CCC2)C(=O)/C=C/c2ccc(OC)c(OC)c2)cc1OC` [Compound A, 4-fluoro-4-cyclobutylmethyl-1,7-bis(3,4-dimethoxyphenyl)hepta-1,6-diene-3,5-dione], the “inhibitory activity on tumor” value was “statistically significant inhibitory activity” with H1299 tumor (H1299 tumor, p<0.05) and “statistically significant inhibitory activity” in test [2]. The tumor regression entry in the test on H1299 tumor (day 35) is recorded as “around 36%”; in the test on H1299 tumor (day 50), “around 43%”. Moreover, the half-inhibitory concentration (IC50) in test [1] lay in the range of 1500 to 3000 nM.
Turning to `COc1ccc(/C=C/C(=O)C(CC2CCC2)C(=O)/C=C/c2ccc(OC)c(OC)c2)cc1OC` [Compound B, 4-(cyclobutylmethyl)-1,7-bis(3,4-dimethoxyphenyl)hepta-1,6-diene-3,5-dione], in test [1], the IC50 was 2000 to 3300 nM.

The record behind these values is patent US20240238220A1, “METHODS FOR TREATING CANCERS” (priority 2023, published 2024).
